Measurements taken from patent US5096922A, “Macrocyclic antibodies” (Gesellschaft fur Biotechnologische Forschung mbH, priority 1985, dated 1992).

Columns and labels:
[1] = system: Staphylococcus aureus Strain Wood 46 in human polymorphonuclear leucocytes; test: in vitro test on human polymorphonuclear leucocytes and Staphylococcus aureus Strain Wood 46; format: cell-based; settings: S. aureus Strain Wood 46
Excerpt: In the in vitro test on human polymorphonuclear leucocytes and Staphylococcus aureus Strain Wood 46, sorangicin A is effective against bacteria that occur intracellularly, e.g. staphylococcae.

[2] = biological target: T1, reverse transcriptase of Moloney Murine leucaemia virus (Moloney murine leukemia virus, UniProt P03355); test: inhibition of reverse transcriptase enzyme; format: biochemical; settings: reverse transcriptase of MLV; method of Wu et al.; read-out: ID50 (dose that inhibits the RT activity by 50%) (converted)
T1 construct: reverse transcriptase of Moloney Murine leucaemia virus
Protocol: Proof of the antiviral activity of the compounds of formula I against retroviruses is shown by in vitro and in vivo tests, but especially by an in vitro test system in which the inhibition of the reverse transcriptase enzyme is determined quantitatively by said compounds.
On poly A-oligo (dT), radioactively labelled TPP is hybridised with reverse transcriptase. The […] radioactivity is measured and serves as reference for the activity of the reverse transcriptase.
The ID50 of the compounds of formula I is determined by using them in the test system in different concentrations.
Sorangicin A is active against reverse transcriptase of Moloney Murine leucaemia virus; the ID50 [dose that inhibits the RT activity by 50%; method of Wu et al., Proc. Natl. Acad. Sci., 69, 3820 (1972)] for the reverse transcriptase of MLV is c. 7 μg/ml.

SMILES: CC(=CC(C)CCCCC(=O)O)C1OC2C=CC1OC(=O)C=CC=CC=CC1OC3CC1OC(C=CCC1OC(CC(O)C1C)C(O)C(O)C=CCCC=CC2)C3C (stereo not drawn) [sorangicin A]
- activity against bacteria that occur intracellularly [1]: effective
- activity within leucocytes [1]: bactericidal activity
- IC50 [2]: ~8.67 µM
